# Measured values published in patent US7138361B2, “Herbicidal heterocycles” (E. I. du Pont de Nemours and Company, priority 2000, dated 2006).
# How the values were obtained:
# Assay type in all cases: in vivo
# Sunflower = experiment: Test C preemergence; settings: Rate 250 g/ha, scale 0 to 100, 0 no effect, 100 complete control
# soybean (Glycine max) = experiment: Test C preemergence; settings: for Plant response rating (0 to 100), Soybean: Rate 500 g/ha, visual evaluation after 12 to 14 days
# Method in brief: (§1)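 Each compound was dissolved in a non-phytotoxic solvent system containing a surfactant and sprayed either on freshly planted seeds (preemergence) or on young plants, 2 to 18 cm high (postemergence). Ratings after 12 to 14 greenhouse days ran from 0, no effect, to 100, complete control.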
# [1] = system: crabgrass (Digitaria sanguinalis); experiment: Test C preemergence; settings: for Plant response rating (0 to 100), Crabgrass: Rate 500 g/ha, visual evaluation after 12 to 14 days
# Method in brief: as §1
# [2] = system: pigweed (Amaranthus retroflexus); experiment: Test C preemergence; settings: for Plant response rating (0 to 100), Pigweed: Rate 500 g/ha, visual evaluation after 12 to 14 days
# Method in brief: as §1
# [3] = system: bermudagrass (Cynodon dactylon); experiment: Test C preemergence; settings: for Plant response rating (0 to 100 where 0 is no effect and 100 is complete control), Bermudagrass: Rate 500 g/ha, visual evaluation after 12 to 14 days
# Method in brief: as §1
# [4] = system: woolly cupgrass (Eriochloa villosa); experiment: Test C preemergence; settings: for Plant response rating (0 to 100), Cupgrass, Woolly: Rate 500 g/ha, visual evaluation after 12 to 14 days
# Method in brief: as §1
# [5] = system: giant foxtail (Setaria faberii); experiment: Test C preemergence; settings: for Plant response rating (0 to 100), Foxtail, Giant: Rate 500 g/ha, visual evaluation after 12 to 14 days
# Method in brief: as §1
# [6] = system: Surinam grass (Brachiaria decumbens); experiment: Test C preemergence; settings: for Plant response rating (0 to 100), Surinam grass: Rate 500 g/ha, visual evaluation after 12 to 14 days
# Method in brief: as §1
# kochia (Kochia scoparia) = experiment: Test C preemergence; settings: for Plant response rating (0 to 100), Kochia: Rate 500 g/ha, visual evaluation after 12 to 14 days
# Method in brief: as §1
# [7] = system: cocklebur (Xanthium strumarium); experiment: Test C preemergence; settings: for Plant response rating (0 to 100), Cocklebur: Rate 500 g/ha, visual evaluation after 12 to 14 days
# Method in brief: as §1
# [8] = system: crabgrass (Digitaria sanguinalis); experiment: Test B preemergence
# Method in brief: (§2)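 Seeds were planted and sprayed preemergence with test chemical in a non-phytotoxic solvent mixture containing surfactant; postemergence plants (2 to 18 cm, 1- to 4-leaf stage) received the same formulation. Greenhouse hold 13 to 15 days, then visual rating versus untreated controls on a 0–100 scale (0 no effect, 100 complete control).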
# [9] = system: barnyardgrass (Echinochloa crus-galli); experiment: Test B preemergence
# Method in brief: as §2
# [10] = system: morning glory (Ipomoea hederacea); experiment: Test B preemergence
# Method in brief: as §2
# [11] = system: velvetleaf (Abutilon theophrasti); experiment: Test B preemergence
# Method in brief: as §2
# [12] = system: pigweed (Amaranthus retroflexus); experiment: Test B preemergence
# Method in brief: as §2
# rice (Oryza saliva) = experiment: Test B preemergence
# Method in brief: as §2
# [13] = system: giant foxtail (Setaria faberii); experiment: Test B preemergence
# Method in brief: as §2
# [14] = system: Surinam grass (Brachiaria decumbens); experiment: Test B preemergence
# Method in brief: as §2
# [15] = system: lambsquarters (Chenopodium album); experiment: Test B preemergence
# Method in brief: as §2
# corn (Zea mays) = experiment: Test B preemergence
# Method in brief: as §2
# [16] = system: cocklebur (Xanthium strumarium); experiment: Test B preemergence
# Method in brief: as §2
# Nightshade = experiment: Test C preemergence; settings: Rate 500 g/ha, visual evaluation after 12 to 14 days
# [17] = Rate 125 g/ha, scale 0 to 100, 0 no effect, 100 complete control
# [18] = preemergence, Rate 62 g/ha, scale 0 to 100
# [19] = preemergence, Rate 250 g/ha, scale 0 to 100, 0 no effect, 100 complete control
# [20] = Preemergence, Rate 500 g/ha, scale 0 to 100, 0 no effect, 100 complete control
# [21] = preemergence, Rate 125 g/ha, scale of 0 to 100 where 0 is no effect and 100 is complete control, 13 to 15 days
structure (smiles),measurement,setting,value
CC(C)(C)c1ccn(C2CCN(c3cccc(I)c3)C2=O)n1 (stereo not drawn) [Compound 88],"Plant response rating, Sunflower",Sunflower,20
same,"Plant response rating, Soybean",soybean (Glycine max); [17],10
same,"Plant response rating, Soybean",soybean (Glycine max); [18],0
same,"Plant response rating (0 to 100), Soybean",soybean (Glycine max); preemergence,30
same,"Plant response rating, Soybean",soybean (Glycine max); [19],10
same,"Plant response rating, Crabgrass",[1]; [17],100
same,"Plant response rating, Crabgrass",[1]; [18],100
same,"Plant response rating (0 to 100), Crabgrass",[1]; preemergence,100
same,"Plant response rating, Crabgrass",[1]; [19],100
same,"Plant response rating, Pigweed",[2]; [17],10
same,"Plant response rating, Pigweed",[2]; [18],0
same,"Plant response rating (0 to 100), Pigweed",[2]; preemergence,100
same,"Plant response rating, Pigweed",[2]; [19],40
same,"Plant response rating, Bermudagrass",[3]; [17],100
same,"Plant response rating, Bermudagrass",[3]; [18],100
same,"Plant response rating (0 to 100 where 0 is no effect and 100 is complete control), Bermudagrass",[3]; preemergence,100
same,"Plant response rating, Bermudagrass",[3]; [19],100
same,"Plant response rating, Cupgrass, Woolly",[4]; [17],90
same,"Plant response rating, Cupgrass, Woolly",[4]; [18],60
same,"Plant response rating (0 to 100), Cupgrass, Woolly",[4]; preemergence,100
same,"Plant response rating, Cupgrass, Woolly",[4]; [19],100
same,"Plant response rating, Foxtail, Giant",[5]; [17],100
same,"Plant response rating, Foxtail, Giant",[5]; [18],0
same,"Plant response rating (0 to 100), Foxtail, Giant",[5]; preemergence,100
same,"Plant response rating, Foxtail, Giant",[5]; [19],100
same,"Plant response rating, Surinam grass",[6]; [17],30
same,"Plant response rating, Surinam grass",[6]; [18],40
same,"Plant response rating (0 to 100), Surinam grass",[6]; preemergence,100
same,"Plant response rating, Surinam grass",[6]; [19],70
same,"Plant response rating, Kochia",kochia (Kochia scoparia); [17],90
same,"Plant response rating, Kochia",kochia (Kochia scoparia); [18],70
same,"Plant response rating (0 to 100), Kochia",kochia (Kochia scoparia); preemergence,100
same,"Plant response rating, Kochia",kochia (Kochia scoparia); [19],100
same,"Plant response rating, Cocklebur",[7]; [17],0
same,"Plant response rating, Cocklebur",[7]; [18],0
same,"Plant response rating (0 to 100), Cocklebur",[7]; preemergence,20
same,"Plant response rating, Cocklebur",[7]; [19],20
same,"Plant response rating, Crabgrass",[8]; [20],100
same,"Plant response rating, Crabgrass",[8]; [21],100
same,"Plant response rating, Barnyardgrass",[9]; [20],100
same,"Plant response rating, Barnyardgrass",[9]; [21],100
same,"Plant response rating, Morningglory",[10]; [20],0
same,"Plant response rating, Morningglory",[10]; [21],0
same,"Plant response rating, Velvetleaf",[11]; [20],0
same,"Plant response rating, Velvetleaf",[11]; [21],0
same,"Plant response rating, Pigweed",[12]; [20],100
same,"Plant response rating, Pigweed",[12]; [21],100
same,"Plant response rating, Rice",rice (Oryza saliva); [20],100
same,"Plant response rating, Rice",rice (Oryza saliva); [21],0
same,"Plant response rating, Foxtail, Giant",[13]; [20],100
same,"Plant response rating, Foxtail, Giant",[13]; [21],100
same,"Plant response rating, Surinam grass",[14]; [20],100
same,"Plant response rating, Surinam grass",[14]; [21],70
same,"Plant response rating, Lambsquarters",[15]; [20],100
same,"Plant response rating, Lambsquarters",[15]; [21],100
same,"Plant response rating, Corn",corn (Zea mays); [20],20
same,"Plant response rating, Corn",corn (Zea mays); [21],20
same,"Plant response rating, Cocklebur",[16]; [20],0
same,"Plant response rating, Cocklebur",[16]; [21],0
same,"Plant response rating (0 to 100), Nightshade",Nightshade,80
CCCC(C)c1ccn(C2OCN(c3cccc(C(F)(F)F)c3)C2=O)n1 (stereo not drawn) [Compound 89],"Plant response rating, Sunflower",Sunflower,0
same,"Plant response rating, Soybean",soybean (Glycine max); [17],0
same,"Plant response rating, Soybean",soybean (Glycine max); [18],0
same,"Plant response rating (0 to 100), Soybean",soybean (Glycine max); preemergence,30
same,"Plant response rating, Soybean",soybean (Glycine max); [19],0
same,"Plant response rating, Crabgrass",[1]; [17],100
same,"Plant response rating, Crabgrass",[1]; [18],20
same,"Plant response rating (0 to 100), Crabgrass",[1]; preemergence,100
same,"Plant response rating, Crabgrass",[1]; [19],100
same,"Plant response rating, Pigweed",[2]; [17],0
same,"Plant response rating, Pigweed",[2]; [18],0
same,"Plant response rating (0 to 100), Pigweed",[2]; preemergence,100
same,"Plant response rating, Pigweed",[2]; [19],50
same,"Plant response rating, Bermudagrass",[3]; [17],90
same,"Plant response rating, Bermudagrass",[3]; [18],10
same,"Plant response rating (0 to 100 where 0 is no effect and 100 is complete control), Bermudagrass",[3]; preemergence,100
same,"Plant response rating, Bermudagrass",[3]; [19],90
same,"Plant response rating, Cupgrass, Woolly",[4]; [17],0
same,"Plant response rating, Cupgrass, Woolly",[4]; [18],0
same,"Plant response rating (0 to 100), Cupgrass, Woolly",[4]; preemergence,70
same,"Plant response rating, Cupgrass, Woolly",[4]; [19],40
same,"Plant response rating, Foxtail, Giant",[5]; [17],0
same,"Plant response rating, Foxtail, Giant",[5]; [18],0
same,"Plant response rating (0 to 100), Foxtail, Giant",[5]; preemergence,100
same,"Plant response rating, Foxtail, Giant",[5]; [19],0
same,"Plant response rating, Surinam grass",[6]; [17],10
same,"Plant response rating, Surinam grass",[6]; [18],0
same,"Plant response rating (0 to 100), Surinam grass",[6]; preemergence,65
same,"Plant response rating, Surinam grass",[6]; [19],30
same,"Plant response rating, Kochia",kochia (Kochia scoparia); [17],70
same,"Plant response rating, Kochia",kochia (Kochia scoparia); [18],20
same,"Plant response rating (0 to 100), Kochia",kochia (Kochia scoparia); preemergence,100
same,"Plant response rating, Kochia",kochia (Kochia scoparia); [19],90
same,"Plant response rating, Cocklebur",[7]; [17],0
same,"Plant response rating, Cocklebur",[7]; [18],0
same,"Plant response rating (0 to 100), Cocklebur",[7]; preemergence,10
same,"Plant response rating, Cocklebur",[7]; [19],10
same,"Plant response rating, Crabgrass",[8]; [20],100
same,"Plant response rating, Crabgrass",[8]; [21],90
same,"Plant response rating, Barnyardgrass",[9]; [20],100
same,"Plant response rating, Barnyardgrass",[9]; [21],80
same,"Plant response rating, Morningglory",[10]; [20],0
same,"Plant response rating, Morningglory",[10]; [21],0
same,"Plant response rating, Velvetleaf",[11]; [20],0
same,"Plant response rating, Velvetleaf",[11]; [21],0
same,"Plant response rating, Pigweed",[12]; [20],100
same,"Plant response rating, Pigweed",[12]; [21],90
same,"Plant response rating, Rice",rice (Oryza saliva); [20],10
same,"Plant response rating, Rice",rice (Oryza saliva); [21],0
same,"Plant response rating, Foxtail, Giant",[13]; [20],100
same,"Plant response rating, Foxtail, Giant",[13]; [21],90
same,"Plant response rating, Surinam grass",[14]; [20],100
same,"Plant response rating, Surinam grass",[14]; [21],60
same,"Plant response rating, Lambsquarters",[15]; [20],100
same,"Plant response rating, Lambsquarters",[15]; [21],100
same,"Plant response rating, Corn",corn (Zea mays); [20],0
same,"Plant response rating, Corn",corn (Zea mays); [21],0
same,"Plant response rating, Cocklebur",[16]; [20],0
same,"Plant response rating, Cocklebur",[16]; [21],0
same,"Plant response rating (0 to 100), Nightshade",Nightshade,30
